Measured values published in patent publication US20230372448A1, “THERAPEUTIC USE OF LONG-ACTING CONJUGATE OF TRIPLE AGONIST ACTING ON ALL OF GLUCAGON, GLP-1 AND GIP RECEPTORS AGAINST MULTIPLE SCLEROSIS” (HANMI PHARM. CO. ,LTD., priority 2020, published 2023).
Positions of bridges follow the written chain, without caps; N, C: chain ends. Non-standard residues stand in square brackets, D forms with d. No end group written: not given here. Aib = CC(C)(N)C(=O)O

B1: triple agonist of SEQ ID NO: 32 (peptide)
peptide: H[Aib]QGTFTSDYSKYLDEKACKDFVQWLLDGGPSSGAPPPS
modifications: bridge 16-20; not fully specified

Key:
[1] = tested on: pyridoxine-induced peripheral neuropathy in non-diabetic rodents; conditions: Exp Neurol. 2007; cited from earlier work
[2] = tested on: relapsing/remitting multiple sclerosis mouse model; conditions: Mol Neurobiol. 2018, cited from earlier work
human GCG receptor = human GCG receptor (human, UniProt P47871 26-477); assay: cell-based or functional assay
human GLP-1 receptor = human GLP-1 receptor (human, UniProt P43220 24-463); assay: cell-based or functional assay
human GIP receptor = target: T1, human GIP receptor (human, UniProt P48546 22-466); assay: cell-based or functional assay
T1 sequence (looked up): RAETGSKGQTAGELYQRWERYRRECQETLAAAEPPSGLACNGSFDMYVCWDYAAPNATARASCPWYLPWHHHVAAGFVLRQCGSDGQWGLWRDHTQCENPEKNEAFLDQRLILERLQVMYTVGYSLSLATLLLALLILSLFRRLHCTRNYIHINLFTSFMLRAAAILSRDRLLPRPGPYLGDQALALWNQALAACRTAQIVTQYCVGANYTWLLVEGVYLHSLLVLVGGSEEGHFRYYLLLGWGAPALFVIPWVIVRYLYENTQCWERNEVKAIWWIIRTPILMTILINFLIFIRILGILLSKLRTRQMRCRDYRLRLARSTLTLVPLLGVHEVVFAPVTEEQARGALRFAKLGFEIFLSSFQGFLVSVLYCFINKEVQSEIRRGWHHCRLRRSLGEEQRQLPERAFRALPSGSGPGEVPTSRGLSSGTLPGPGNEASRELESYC

human GCG receptor, sequence (P47871 26-477): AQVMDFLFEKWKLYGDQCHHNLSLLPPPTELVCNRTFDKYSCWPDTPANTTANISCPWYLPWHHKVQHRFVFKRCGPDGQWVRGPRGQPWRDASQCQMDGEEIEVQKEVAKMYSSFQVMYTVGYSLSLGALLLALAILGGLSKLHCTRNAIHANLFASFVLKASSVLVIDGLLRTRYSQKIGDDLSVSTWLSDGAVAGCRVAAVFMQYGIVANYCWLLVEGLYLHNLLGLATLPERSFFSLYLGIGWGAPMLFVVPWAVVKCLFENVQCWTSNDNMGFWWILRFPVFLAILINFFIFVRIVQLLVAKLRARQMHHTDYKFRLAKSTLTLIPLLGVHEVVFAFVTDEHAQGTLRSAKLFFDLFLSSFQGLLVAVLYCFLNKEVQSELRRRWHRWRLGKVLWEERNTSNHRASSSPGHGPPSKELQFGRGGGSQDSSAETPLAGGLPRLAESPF

| Molecule | protection against pyridoxine-induced functional and morphological defects [1] | levels of inflammatory cytokines that increase during demyelination [2] | symptoms of multiple sclerosis ([2]; effect similar to that of fingolimod) | In vitro activity (%) compared with native peptide: vs Glucagon (human GCG receptor) [%] | In vitro activity (%) compared with native peptide: vs GLP-1 (human GLP-1 receptor) [%] | In vitro activity (%) compared with native peptide: vs GIP (human GIP receptor) [%] |
| --- | --- | --- | --- | --- | --- | --- |
| exendin-4 | partially protected | reduced the levels of inflammatory cytokines | symptom alleviating effect | – | – | – |
| glucagon-like peptide-1 (HAEGTFTSDVSSYLEGQAAKEFIAWLVKGR; ends and bridges not checked; UniProt P01275 98-127, looked up) [GLP-1, a typical incretin hormone] | partially protected | – | – | – | – | – |
| B1 | – | – | – | 1.7 | 151 | 8.8 |
